The molecules below were run on HCV pseudoparticles (genotype 1a HCV E1 and E2 envelope, H77C isolate) (assay: microbe, parasite or virus in culture). Settings: Hepatitis C virus, Huh-7, 48 h, HCV pseudoparticle infection of Huh7 cells, luciferase 2 days after infection; average of duplicates.
Assay type: cell-based
Work on `COC(=O)[C@H](CCNC(=O)C(=O)NC1CC(C)CC(C)(C)C1)NC(=O)c1ccc(Nc2nc(NC3(c4ccc(Cl)cc4)CC3)nc(OCC(F)(F)F)n2)cc1` (stereo partly drawn) [Compound 1107] yielded an EC50 of 0.46 nM.

Same assay, conditions: Hepatitis C virus, Huh-7, 48 h, HCV pseudoparticles (genotype 1a, H77C) in Huh7 cells; average of duplicate; luciferase 2 days after infection
Work on `CC(O)N1CCN(c2ccc(NC(=O)C(=O)NC[C@H](NC(=O)c3ccc(Nc4nc(NC5(c6ccc(Cl)cc6)CC5)nc(OCC(F)(F)F)n4)cc3)C(=O)O)cc2)CC1` (stereo partly drawn) [Compound 3271] yielded an EC50 of 1.38 nM. For `O=C(NCCC(NC(=O)c1ccc(Nc2nc(NC3(c4ccc(Cl)cc4)CC3)nc(OCC(F)(F)F)n2)cc1)C(=O)O)C(=O)Nc1ccc(CN2CCCCC2)cc1` (stereo not drawn) [Compound 3534], the EC50 was 7.54 nM.

Same assay, conditions: Hepatitis C virus, Huh-7, 48 h, read-out: Activity (EC50 class), HCV pseudoparticle infection of Huh7 cells, luciferase 2 days after infection; EC50 expressed as class A/B
`COC(=O)[C@H](CCNC(=O)C(=O)NCCc1cccc(F)c1)NC(=O)c1ccc(Nc2nc(NC3(c4ccc(Cl)cc4)CC3)nc(OCC(F)(F)F)n2)cc1` [Compound 1312] was tested, and the EC50 was 0.01 to 10 nM. `COC(=O)[C@@H](CCNC(=O)C(=O)NCC1(CN2CCN(C)CC2)CC1)NC(=O)c1ccc(Nc2nc(NC3(c4ccc(Cl)cc4)CC3)nc(OCC(F)(F)F)n2)cc1` [Compound 1388] gave an EC50 of 0.01 to 10 nM. `O=C(NCC1CCOCC1)C(=O)NC[C@H](NC(=O)c1ccc(Nc2nc(NC3(c4ccc(Cl)cc4)CC3)nc(OCC(F)(F)F)n2)cc1)C(=O)O` [Compound 1477] showed an EC50 of 0.01 to 10 nM. Molecule `COC(=O)[C@H](CCNC(=O)C(=O)NC1CC(C)CC(C)(C)C1)NC(=O)c1ccc(Nc2nc(NC3(c4ccc(Cl)cc4)CC3)nc(OCC(F)(F)F)n2)cc1` (stereo partly drawn) [Compound 1107] has an EC50 of 0.01 to 10 nM. With `CCOCC1(CNC(=O)C(=O)NCC[C@H](NC(=O)c2ccc(Nc3nc(NC4(c5ccc(Cl)cc5)CC4)nc(OCC(F)(F)F)n3)cc2)C(=O)O)CC1` [Compound 1422] the EC50 was 0.01 to 10 nM. With `CC(C)(C)OC(=O)N1CCC(NC(=O)C(=O)NC[C@H](NC(=O)c2ccc(Nc3nc(NC4(c5ccc(Cl)cc5)CC4)nc(OCC(F)(F)F)n3)cc2)C(=O)O)CC1` [Compound 1079] the EC50 was 0.01 to 10 nM. `C[C@H]1[C@@H](NC(=O)C(=O)NCC[C@H](NC(=O)c2ccc(Nc3nc(NC4(c5ccc(Cl)cc5)CC4)nc(OCC(F)(F)F)n3)cc2)C(=O)O)C[C@H]2C[C@@H]1C2(C)C` [Compound 1123] gave an EC50 of 0.01 to 10 nM. `CC(C)(CNC(=O)C(=O)Nc1ccc2c(c1)oc1ccccc12)CNC(=O)c1ccc(Nc2nc(NC3(c4ccc(Cl)cc4)CC3)nc(OCC(F)(F)F)n2)cc1` [Compound 1577] was tested, and the EC50 was 0.01 to 10 nM. For `COC(=O)[C@H](CCNC(=O)C(=O)NC1CCCCCCC1)NC(=O)c1ccc(Nc2nc(NC3(c4ccc(Cl)cc4)CC3)nc(OCC(F)(F)F)n2)cc1` [Compound 1104], the EC50 was 0.01 to 10 nM. `Cn1ccc(NC(=O)C(=O)NCC[C@H](NC(=O)c2ccc(Nc3nc(NC4(c5ccc(Cl)cc5)CC4)nc(OCC(F)(F)F)n3)cc2)C(=O)O)n1` [Compound 1263] gave an EC50 of 0.01 to 10 nM. In the case of `COC(=O)[C@@H](CCNC(=O)C(=O)NCC1(CO)CC1)NC(=O)c1ccc(Nc2nc(NC3(c4ccc(Cl)cc4)CC3)nc(OCC(F)(F)F)n2)cc1` [Compound 1380], the EC50 is reported as 0.01 to 10 nM. `COc1ccc(C(NC(=O)C(=O)NCC[C@H](NC(=O)c2ccc(Nc3nc(NC4(c5ccc(Cl)cc5)CC4)nc(OCC(F)(F)F)n3)cc2)C(=O)O)C2CC2)cc1` (stereo partly drawn) [Compound 1437] showed an EC50 of 0.01 to 10 nM. In the case of `O=C(Nc1ccc(F)cc1)C(=O)NC1CCCC1CNC(=O)c1ccc(Nc2nc(NC3(c4ccc(Cl)cc4)CC3)nc(OCC(F)(F)F)n2)cc1` (stereo not drawn) [Compound 1465, N^1-(2-((4-((4-((1-(4-chlorophenyl)cyclopropyl)amino)-6-(2,2,2-trifluoroethoxy)-1,3,5-triazin-2-yl)amino)benzamido)methyl)cyclopentyl)-N^2-(4-fluorophenyl)oxalamide], the EC50 is reported as 0.01 to 10 nM. `O=C(NCC[C@H](NC(=O)c1ccc(Nc2nc(NC3(c4ccc(Cl)cc4)CC3)nc(OCC(F)(F)F)n2)cc1)C(=O)O)C(=O)NC1C[C@H]2CC[C@@H]1C2` (stereo partly drawn) [Compound 1120] was tested, and the EC50 was 0.01 to 10 nM. `CC1CCCCC1NC(=O)C(=O)NCC[C@H](NC(=O)c1ccc(Nc2nc(NC3(c4ccc(Cl)cc4)CC3)nc(OCC(F)(F)F)n2)cc1)C(=O)O` (stereo partly drawn) [Compound 1124] was tested, and the EC50 was 0.01 to 10 nM. `COC(=O)[C@H](CCNC(=O)C(=O)NCc1ccc(OC)c(OC)c1)NC(=O)c1ccc(Nc2nc(NC3(c4ccc(Cl)cc4)CC3)nc(OCC(F)(F)F)n2)cc1` [Compound 1144] was tested, and the EC50 was 0.01 to 10 nM. Work on `COC(=O)[C@H](CCNC(=O)C(=O)Nc1ccc(F)cc1)NC(=O)c1ccc(Nc2nc(NC3(c4ccc(Cl)cc4)CC3)nc(OCC(F)(F)F)n2)cc1` [Compound 1230] yielded an EC50 of 0.01 to 10 nM.

Same assay, conditions: Hepatitis C virus, Huh-7, 48 h, read-out: Activity (EC50 class), HCV pseudoparticles, Huh7 cells, luciferase 2 days after infection; average of duplicates
`COC(=O)[C@H](CNC(=O)C(=O)Nc1cccc(C)c1)NC(=O)c1ccc(Nc2nc(NC3(c4ccc(Cl)cc4)CC3)nc(OCC(F)(F)F)n2)cc1` [Compound 3687] was tested, and the EC50 was 0.01 to 10 nM. Work on `O=C(NC[C@H](NC(=O)c1ccc(Nc2nc(NC3(c4ccc(Cl)cc4)CC3)nc(OCC(F)(F)F)n2)cc1)C(=O)O)C(=O)Nc1cccc(S(=O)(=O)c2ccccc2)c1` [Compound 3757] yielded an EC50 of 0.01 to 10 nM. In the case of `Cc1ccc(NC(=O)C(=O)NCC(C)(C)CNC(=O)c2ccc(Nc3nc(NC4(c5ccc(Cl)cc5)CC4)nc(OCc4ccc(C(C)C)cc4)n3)cc2F)cc1` [Compound 3827, N^1-(3-(4-((4-((1-(4-chlorophenyl)cyclopropyl)amino)-6-((4-isopropylbenzyl)oxy)-1,3,5-triazin-2-yl)amino)-2-fluorobenzamido)-2,2-dimethylpropyl)-N^2-(p-tolyl)oxalamide], the EC50 is reported as 0.01 to 10 nM. `Cc1nc(-c2cccc(NC(=O)C(=O)NC[C@H](NC(=O)c3ccc(Nc4nc(NC5(c6ccc(Cl)cc6)CC5)nc(OCC(F)(F)F)n4)cc3)C(=O)Cl)c2)no1` [Compound 3785] showed an EC50 of 0.01 to 10 nM. `COC(=O)[C@H](CCNC(=O)C(=O)Nc1cccc(C#CC(C)(C)Cl)c1)NC(=O)c1ccc(Nc2nc(NC3(c4ccc(Cl)cc4)CC3)nc(OCC(F)(F)F)n2)cc1` [Compound 3600] showed an EC50 of 0.01 to 10 nM. Work on `Cc1nc(-c2cccc(NC(=O)C(=O)NC[C@H](NC(=O)c3ccc(Nc4nc(NC5(c6ccc(Cl)cc6)CC5)nc(OCC(F)(F)F)n4)cc3)C(=O)O)c2)cs1` [Compound 3773] yielded an EC50 of 0.01 to 10 nM. With `COC(=O)[C@H](CNC(=O)C(=O)Nc1cccc(-c2ccncc2)c1)NC(=O)c1ccc(Nc2nc(NC3(c4ccc(Cl)cc4)CC3)nc(OCC(F)(F)F)n2)cc1` [Compound 3712] the EC50 was 0.01 to 10 nM.

Same assay, conditions: Hepatitis C virus, Huh-7, read-out: Activity (EC50 class), HCV pseudoparticles (genotype 1a, H77C) in Huh7 cells; EC50 expressed as class A/B
`CC(CNC(=O)C(=O)NC1CCCCC1)CNC(=O)c1ccc(Nc2nc(NC3(c4ccc(Cl)cc4)CC3)nc(OCC(F)(F)F)n2)cc1` (stereo not drawn) [Compound 3472] gave an EC50 of 0.01 to 10 nM. `Cc1nccn1Cc1ccc(NC(=O)C(=O)NC[C@H](NC(=O)c2ccc(Nc3nc(NC4(c5ccc(Cl)cc5)CC4)nc(OCC(F)(F)F)n3)cc2)C(=O)O)cc1` [Compound 3287] showed an EC50 of 0.01 to 10 nM. `COC(=O)[C@@H](CCNC(=O)C(=O)Nc1cccc(C(=O)Nc2ccccc2)c1)NC(=O)c1ccc(Nc2nc(NC3(c4ccc(Cl)cc4)CC3)nc(OCC(F)(F)F)n2)cc1` [Compound 3575] gave an EC50 of 0.01 to 10 nM. `CC(O)N1CCN(c2ccc(NC(=O)C(=O)NC[C@H](NC(=O)c3ccc(Nc4nc(NC5(c6ccc(Cl)cc6)CC5)nc(OCC(F)(F)F)n4)cc3)C(=O)O)cc2)CC1` (stereo partly drawn) [Compound 3271] gave an EC50 of 0.01 to 10 nM. Work on `O=C(NCCCCNC(=O)c1ccc(Nc2nc(NC3(c4ccc(Cl)cc4)CC3)nc(OCC(F)(F)F)n2)cc1)C(=O)NCc1ccc(F)cc1` [Compound 3392] yielded an EC50 of 0.01 to 10 nM. `COC(=O)[C@H](CCNC(=O)C(=O)Nc1ccc(OCC(F)(F)F)cc1)NC(=O)c1ccc(Nc2nc(NC3(c4ccc(Cl)cc4)CC3)nc(OCC(F)(F)F)n2)cc1` [Compound 3125] showed an EC50 of 0.01 to 10 nM. With `COC(=O)[C@H](CCNC(=O)C(=O)Nc1ccc(-c2cnco2)cc1)NC(=O)c1ccc(Nc2nc(NC3(c4ccc(Cl)cc4)CC3)nc(OCC(F)(F)F)n2)cc1` [Compound 3122] the EC50 was 0.01 to 10 nM. Molecule `Cc1ccc(NC(=O)C(=O)NCC(C)(C)CNC(=O)c2ccc(Nc3nc(NC4(c5ccc(Cl)cc5)CC4)nc(OCC(F)(F)F)n3)cc2)c(C#N)c1` [Compound 3454] has an EC50 of 0.01 to 10 nM. `CCN(CC)CCNC(=O)c1ccc(NC(=O)C(=O)NCC[C@H](NC(=O)c2ccc(Nc3nc(NC4(c5ccc(Cl)cc5)CC4)nc(OCC(F)(F)F)n3)cc2)C(=O)OC)cc1` [Compound 3117] showed an EC50 of 0.01 to 10 nM. For `COC(=O)[C@H](CCNC(=O)C(=O)Nc1ccc(C(N)=O)cc1)NC(=O)c1ccc(Nc2nc(NC3(c4ccc(Cl)cc4)CC3)nc(OCC(F)(F)F)n2)cc1` [Compound 3116], the EC50 was 0.01 to 10 nM. With `CC(C)(CNC(=O)C(=O)Nc1nc2ccccc2s1)CNC(=O)c1ccc(Nc2nc(NC3(c4ccc(Cl)cc4)CC3)nc(OCC(F)(F)F)n2)cc1F` [Compound 3568] the EC50 was 0.01 to 10 nM. Work on `COC(=O)[C@H](CNC(=O)C(=O)Nc1ccc(-c2cnco2)cc1)NC(=O)c1ccc(Nc2nc(NC3(c4ccc(Cl)cc4)CC3)nc(OCC(F)(F)F)n2)cc1` [Compound 3093] yielded an EC50 of 0.01 to 10 nM. `COC(=O)[C@@H](CCNC(=O)C(=O)Nc1cccc(C)c1)NC(=O)c1ccc(Nc2nc(NC3(c4ccc(Cl)cc4)CC3)nc(OCC(F)(F)F)n2)cc1` [Compound 3572] gave an EC50 of 0.01 to 10 nM. Molecule `O=C(NC/C(=N/C(=O)c1ccc(Nc2nc(NC3(c4ccc(Cl)cc4)CC3)nc(OCC(F)(F)F)n2)cc1)C(=O)O)C(=O)Nc1ccc(N2CCOCC2)cc1` [Compound 3148] has an EC50 of 0.01 to 10 nM. Molecule `COC(=O)[C@@H](CCNC(=O)C(=O)Nc1cccc(-c2ccnc(C)n2)c1)NC(=O)c1ccc(Nc2nc(NC3(c4ccc(Cl)cc4)CC3)nc(OCC(F)(F)F)n2)cc1` [Compound 3583] has an EC50 of 0.01 to 10 nM. With `O=C(NCC[C@H](NC(=O)c1ccc(Nc2nc(NC3(c4ccc(Cl)cc4)CC3)nc(OCC(F)(F)F)n2)cc1)C(=O)O)C(=O)Nc1ccc(Oc2cccnc2)cc1` [Compound 3545] the EC50 was 0.01 to 10 nM. Work on `O=C(NC[C@H](NC(=O)c1ccc(Nc2nc(NC3(c4ccc(Cl)cc4)CC3)nc(OCC(F)(F)F)n2)cc1)C(=O)O)C(=O)Nc1ccc(-c2ccno2)cc1` [Compound 3282] yielded an EC50 of 0.01 to 10 nM. In the case of `CC(C)(CNC(=O)C(=O)Nc1ccccc1C#N)CNC(=O)c1ccc(Nc2nc(NC3(c4ccc(Cl)cc4)CC3)nc(OCC(F)(F)F)n2)cc1` [Compound 3385], the EC50 is reported as 0.01 to 10 nM. `O=C(NCCC(NC(=O)c1ccc(Nc2nc(NC3(c4ccc(Cl)cc4)CC3)nc(OCC(F)(F)F)n2)cc1)C(=O)O)C(=O)Nc1ccc(CN2CCCCC2)cc1` (stereo not drawn) [Compound 3534] was tested, and the EC50 was 0.01 to 10 nM. `COC(=O)/C(CCNC(=O)C(=O)Nc1ccc(N)nc1)=N\C(=O)c1ccc(Nc2nc(NC3(c4ccc(Cl)cc4)CC3)nc(OCC(F)(F)F)n2)cc1` [Compound 3587] was tested, and the EC50 was 0.01 to 10 nM. With `COc1ccc(NC(=O)C(=O)NCC(C)(C)CNC(=O)c2ccc(Nc3nc(NC4(c5ccc(Cl)cc5)CC4)nc(OCC(F)(F)F)n3)cc2)cn1` [Compound 3257] the EC50 was 0.01 to 10 nM.

Reference: patent US8916702B2 (priority 2012, dated 2014)
